Experimental data from the NIST ThermoML archive (doi:10.1021/je200434a).

Conditions: 101.33 kPa, Liquid; for viscosity: Concentric cylinders viscometry; for mass density: Vibrating tube method

CCCCCCCCOS(=O)(=O)[O-].CCn1cc[n+](C)c1 [1-ethyl-3-methylimidazolium octyl sulfate]
Conditions	mass density [kg/m3]	viscosity [mPa·s]
283.15 K	–	1879
288.15 K	–	1252.1
293.15 K	1098.76	856
294.15 K	1098.1	–
295.15 K	1097.43	–
296.15 K	1096.77	–
297.15 K	1096.31	–
298.15 K	1095.65	601.6
299.15 K	1094.99	–
300.15 K	1094.32	–
301.15 K	1093.65	–
302.15 K	1092.99	–
303.15 K	1092.32	433.6
304.15 K	1091.66	–
305.15 K	1090.99	–
306.15 K	1090.33	–
307.15 K	1089.66	–
308.15 K	1089	319.6
309.15 K	1088.33	–
310.15 K	1087.67	–
311.15 K	1087	–
312.15 K	1086.34	–
313.15 K	1085.68	240.5
314.15 K	1085.02	–
315.15 K	1084.36	–
316.15 K	1083.7	–
317.15 K	1083.04	–
318.15 K	1082.38	184.4
319.15 K	1081.72	–
320.15 K	1081.06	–
321.15 K	1080.4	–
322.15 K	1079.75	–
323.15 K	1079.09	143.8
324.15 K	1078.44	–
325.15 K	1077.78	–
326.15 K	1077.13	–
327.15 K	1076.48	–
328.15 K	1075.83	113.9
329.15 K	1075.17	–
330.15 K	1074.52	–
331.15 K	1073.87	–
332.15 K	1073.23	–
333.15 K	1072.58	91.6
334.15 K	1071.93	–
335.15 K	1071.29	–
336.15 K	1070.64	–
337.15 K	1070	–
338.15 K	1069.35	74.5
339.15 K	1068.71	–
340.15 K	1068.07	–
341.15 K	1067.43	–
342.15 K	1066.79	–
343.15 K	1066.15	61.4
344.15 K	1065.51	–
345.15 K	1064.87	–
346.15 K	1064.23	–
347.15 K	1063.6	–
348.15 K	1062.96	51.1
349.15 K	1062.32	–
350.15 K	1061.69	–
351.15 K	1061.05	–
352.15 K	1060.42	–
353.15 K	1059.79	43
354.15 K	1059.16	–
355.15 K	1058.53	–
356.15 K	1057.89	–
357.15 K	1057.26	–
358.15 K	1056.63	36.5
359.15 K	1056	–
360.15 K	1055.37	–
361.15 K	1054.75	–
362.15 K	1054.12	–
363.15 K	1053.49	31.3
368.15 K	–	27
373.15 K	–	23.5

CCn1cc[n+](C)c1.O=S(=O)([O-])O [1-ethyl-3-methylimidazolium hydrogen sulfate]
Conditions	mass density [kg/m3]	viscosity [mPa·s]
283.15 K	–	5756.7
288.15 K	–	3635
293.15 K	1368.86	2389.9
294.15 K	1368.25	–
295.15 K	1367.63	–
296.15 K	1367	–
297.15 K	1366.38	–
298.15 K	1365.77	1628.4
299.15 K	1365.14	–
300.15 K	1364.53	–
301.15 K	1363.91	–
302.15 K	1363.29	–
303.15 K	1362.67	1144.8
304.15 K	1362.05	–
305.15 K	1361.44	–
306.15 K	1360.82	–
307.15 K	1360.21	–
308.15 K	1359.59	827.1
309.15 K	1358.98	–
310.15 K	1358.76	–
311.15 K	1358.14	–
312.15 K	1357.52	–
313.15 K	1356.9	612.2
314.15 K	1356.28	–
315.15 K	1355.67	–
316.15 K	1355.05	–
317.15 K	1354.43	–
318.15 K	1353.81	463
319.15 K	1353.19	–
320.15 K	1352.57	–
321.15 K	1351.96	–
322.15 K	1351.34	–
323.15 K	1350.72	356.8
324.15 K	1350.11	–
325.15 K	1349.49	–
326.15 K	1348.88	–
327.15 K	1348.27	–
328.15 K	1347.65	279.7
329.15 K	1347.04	–
330.15 K	1346.43	–
331.15 K	1345.82	–
332.15 K	1345.2	–
333.15 K	1344.6	222.6
334.15 K	1343.99	–
335.15 K	1343.38	–
336.15 K	1342.77	–
337.15 K	1342.16	–
338.15 K	1341.56	179.6
339.15 K	1340.95	–
340.15 K	1340.35	–
341.15 K	1339.75	–
342.15 K	1339.14	–
343.15 K	1338.54	146.7
344.15 K	1337.94	–
345.15 K	1337.34	–
346.15 K	1336.74	–
347.15 K	1336.14	–
348.15 K	1335.54	121.2
349.15 K	1334.94	–
350.15 K	1334.35	–
351.15 K	1333.75	–
352.15 K	1333.16	–
353.15 K	1332.57	101.2
354.15 K	1331.97	–
355.15 K	1331.38	–
356.15 K	1330.79	–
357.15 K	1330.2	–
358.15 K	1329.61	85.2
359.15 K	1329.02	–
360.15 K	1328.44	–
361.15 K	1327.85	–
362.15 K	1327.26	–
363.15 K	1326.68	72.4
368.15 K	–	61.9
373.15 K	–	53.4
